From patent US6953812B2, “Glucagon antagonists/inverse agonists” (Novo Nordisk, Inc., priority 2000, dated 2005)

How the values were obtained:
human GIP receptor = target: T1, human GIP receptor (Homo sapiens, UniProt P48546); assay: GIP Binding Assay; conditions: membranes of BHK cells transfected with human GIP receptor, 125I-GIP, SPA; read-out: GIP Bd Assay IC50
T1 construct: expressed in transfected cells; host or cells: BHK (baby hamster kidney) cells, membrane preparation
T1 sequence (P48546 22-466): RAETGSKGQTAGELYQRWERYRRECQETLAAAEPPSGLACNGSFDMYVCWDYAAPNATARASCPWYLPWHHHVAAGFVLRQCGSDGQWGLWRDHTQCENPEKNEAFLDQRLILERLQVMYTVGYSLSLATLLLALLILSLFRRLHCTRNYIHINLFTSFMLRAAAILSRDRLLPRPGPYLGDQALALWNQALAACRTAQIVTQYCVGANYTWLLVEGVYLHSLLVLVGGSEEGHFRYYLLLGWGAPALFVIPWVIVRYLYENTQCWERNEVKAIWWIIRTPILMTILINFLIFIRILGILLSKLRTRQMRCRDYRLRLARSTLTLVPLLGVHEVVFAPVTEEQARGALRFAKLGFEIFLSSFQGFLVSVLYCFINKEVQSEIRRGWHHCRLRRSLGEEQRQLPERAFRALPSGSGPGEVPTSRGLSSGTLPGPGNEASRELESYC
Summary of the method: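 Membranes from BHK cells transfected with human GIP receptor; competition binding in HEPES pH 7.5 buffer with Ca2+/Mg2+, compounds added in DMSO, WGA SPA beads. Incubated 3.5 h shaking, settled 8-48 h, then scintillation counted; non-specific binding defined with 500 nM GIP.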

human glucagon receptor = target: T2, human glucagon receptor (Homo sapiens, UniProt P47871); assay: Glucagon Binding Assay (II); conditions: membranes of BHK cells transfected with human glucagon receptor, 125I-glucagon, SPA; read-out: Glu Bd Assay (II) IC50
T2 construct: expressed in transfected cells; host or cells: BHK (baby hamster kidney) cells, membrane preparation
Summary of the method: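 Membranes from BHK cells transfected with the human glucagon receptor were incubated with test compound (in DMSO) in HEPES buffer pH 7.5 with Ca2+/Mg2+ and WGA beads for 4 h, then settled 8–48 h before scintillation counting. Non-specific binding was defined with 500 nM glucagon.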

T2 sequence (P47871 26-477): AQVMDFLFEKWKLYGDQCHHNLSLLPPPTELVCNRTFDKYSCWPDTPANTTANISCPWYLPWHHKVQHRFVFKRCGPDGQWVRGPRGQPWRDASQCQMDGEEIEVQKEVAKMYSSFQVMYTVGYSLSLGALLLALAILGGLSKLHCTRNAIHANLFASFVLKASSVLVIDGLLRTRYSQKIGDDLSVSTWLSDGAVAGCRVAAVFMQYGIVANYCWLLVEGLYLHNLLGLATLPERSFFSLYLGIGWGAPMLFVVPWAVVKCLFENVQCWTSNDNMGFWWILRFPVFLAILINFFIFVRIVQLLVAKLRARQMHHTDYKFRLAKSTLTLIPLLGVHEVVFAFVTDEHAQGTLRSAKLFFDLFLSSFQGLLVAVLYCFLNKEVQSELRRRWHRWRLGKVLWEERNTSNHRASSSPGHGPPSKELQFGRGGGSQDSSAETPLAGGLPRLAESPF

Row | IC50 (human GIP receptor) | IC50 (human glucagon receptor) | SMILES
1 | > 3000 nM | 390 nM | CC(=O)c1ccc(NC(=O)N(Cc2ccc(C(=O)NC[C@@H](O)C(=O)O)cc2)c2ccc(C3CCCCC3)cc2)cc1 [Example 53, (R)-3-{4-[3-(4-Acetylphenyl)-1-(4-cyclohexylphenyl)ureidomethyl]benzoylamino}-2-hydroxypropionic acid]
2 | 427 nM | 50 nM | O=C(NC[C@@H](O)C(=O)O)c1ccc(CN(C(=O)Nc2cc(F)cc(F)c2)c2ccc(C3CCCCC3)cc2)cc1 [Example 55, (R)-3-{4-[1-(4-Cyclohexylphenyl)-3-(3,5-difluorophenyl)ureidomethyl]benzoylamino}-2-hydroxypropionic acid]
3 | 1370 nM | 228 nM | CC(C)(C)C1CCC(N(Cc2ccc(C(=O)NC[C@@H](O)C(=O)O)cc2)C(=O)Cc2ccc(OC(F)(F)F)cc2)CC1 (stereo partly drawn) [Example 56, (R)-3-[4-({(4-tert-Butylcyclohexyl)-[2-(4-trifluoromethoxyphenyl)acetyl]amino}methyl)benzoylamino]-2-hydroxypropionic acid]
4 | > 3000 nM | 439 nM | CC(C)(C)C1CCC(N(Cc2ccc(C(=O)NC[C@@H](O)C(=O)O)cc2)C(=O)Cc2cc(F)cc(C(F)(F)F)c2)CC1 (stereo partly drawn) [Example 57, (R)-3-[4-({(4-tert-Butylcyclohexyl)-[2-(3-fluoro-5-trifluoromethylphenyl)acetyl]amino}methyl)benzoylamino]-2-hydroxypropionic acid]
5 | > 3000 nM | 957 nM | O=C(NC[C@@H](O)C(=O)O)c1ccc(CN(CC(c2ccccc2)c2ccccc2)C(=O)Cc2cc(F)cc(C(F)(F)F)c2)cc1 [Example 58, (R)-3-[4-({(2,2-Diphenylethyl)-[2-(3-fluoro-5-trifluoromethylphenyl)acetyl]amino}methyl)benzoylamino]-2-hydroxypropionic acid]
6 | > 3000 nM | 594 nM | O=C(NC[C@@H](O)C(=O)O)c1ccc(CN(CC(c2ccccc2)c2ccccc2)C(=O)c2csc3ccc(Cl)cc23)cc1 [Example 59, (R)-3-(4-{[(5-Chlorobenzo[b]thiophene-3-carbonyl)-(2,2-diphenylethyl)amino]methyl}benzoylamino)-2-hydroxypropionic acid]
7 | > 3000 nM | 1020 nM | O=C(NC[C@@H](O)C(=O)O)c1ccc(CN(CC(c2ccccc2)c2ccccc2)C(=O)Cc2ccc(OC(F)(F)F)cc2)cc1 [Example 60, (R)-3-[4-({(2,2-Diphenylethyl)-[2-(4-trifluoromethoxyphenyl)acetyl]amino}methyl)benzoylamino]-2-hydroxypropionic acid]
8 | > 3000 nM | 754 nM | CC(C)(C)C1CCC(N(Cc2ccc(C(=O)NC[C@@H](O)C(=O)O)cc2)C(=O)c2csc3ccc(Cl)cc23)CC1 (stereo partly drawn) [Example 61, (R)-3-(4-{[(4-tert-Butylcyclohexyl)-(5-chlorobenzo[b]thiophene-3-carbonyl)amino]methyl}-benzoylamino)-2-hydroxypropionic acid]
9 | > 3000 nM | 757 nM | O=C(NC[C@@H](O)C(=O)O)c1ccc(CN(CC(c2ccccc2)c2ccccc2)C(=O)c2cc3cc(OC(F)(F)F)ccc3[nH]2)cc1 [Example 62, (R)-3-(4-{[(2,2-Diphenylethyl)-(5-trifluoromethoxy-1H-indole-2-carbonyl)amino]methyl}-benzoylamino)-2-hydroxypropionic acid]
10 | > 3000 nM | 336 nM | O=C(NC[C@@H](O)C(=O)O)c1ccc(CN(C(=O)Cc2ccc(OC(F)(F)F)cc2)c2ccc(C3CCCCC3)cc2)cc1 [Example 63, (R)-3-[4-({(4-Cyclohexylphenyl)-[(4-trifluoromethoxyphenyl)acetyl]amino}methyl)benzoylamino]-2-hydroxypropionic acid]
11 | > 3000 nM | 514 nM | O=C(NC[C@@H](O)C(=O)O)c1ccc(CN(C(=O)Cc2cccc(OC(F)(F)F)c2)c2ccc(C3CCCCC3)cc2)cc1 [Example 64, (R)-3-[4-({(4-Cyclohexylphenyl)-[(3-trifluoromethoxyphenyl)acetyl]amino}methyl)benzoylamino]-2-hydroxypropionic acid]
